US20230407243A1, “GENETIC PLATFORM TO INVESTIGATE THE FUNCTIONS OF BACTERIAL DRUG EFFLUX PUMPS” (priority 2022, published 2023)

Legend:
Format in all cases: cell-based, Escherichia coli
EKO-35 araC::acrD Pore = assay: MIC susceptibility profiling, porinated efflux platform; conditions: for Fold changes of MICs: EKO-35 araC::acrD Pore compared to EKO-35-Pore; for Minimum inhibitory concentration, EKO-35 araC::acrD Pore: Table 14A, porinated, technical duplicate
In short: (§1)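 Strains carry the fhuA ΔC/Δ4L pore integrated between glmS and pstS under a constitutive promoter, with pore activity checked by vancomycin susceptibility. Overnight LB cultures were adjusted in PBS pH 7.4 to OD600 ~1.0 and diluted 1/2000 into MHB II. 2-fold compound titrations were read by OD600 after 18 h at 37 °C.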

[1] = tested on: EKO-35 araC::acrBD408A Pore; assay: as above; conditions: for Fold changes of MICs: EKO-35 araC::acrBD408A Pore compared to EKO-35-Pore
In short: as §1

EKO-35 araC::acrB Pore = assay: as above; conditions: for Fold changes of MICs: EKO-35 araC::acr-B Pore compared to EKO-35-Pore; for Minimum inhibitory concentration, EKO-35 araC::acrB Pore: Table 14A, porinated, technical duplicate
In short: as §1

EKO-35 araC::emrKY Pore = assay: as above; conditions: for Fold changes of MICs: EKO-35 araC::emrKY Pore compared to EKO-35-Pore
In short: as §1

EKO-35 araC::mdtEF Pore = assay: as above; conditions: for Fold changes of MICs: EKO-35 araC::mdtEF Pore compared to EKO-35-Pore; for Minimum inhibitory concentration, EKO-35 araC::mdtEF Pore: Table 14A, porinated, technical duplicate
In short: as §1

EKO-35 araC::mdtBC Pore = assay: as above; conditions: for Fold changes of MICs: EKO-35 araC::mdtBC Pore compared to EKO-35-Pore
In short: as §1

EKO-35 araC::mexCD Pore = assay: as above; conditions: for Fold changes of MICs: EKO-35 araC::mexCD Pore compared to EKO-35-Pore
In short: as §1

EKO-35 araC::emrAB Pore = assay: as above; conditions: for Fold changes of MICs: EKO-35 araC::emrAB Pore compared to EKO-35-Pore
In short: as §1

EKO-35 araC::macAB Pore = assay: as above; conditions: for Fold changes of MICs: EKO-35 araC::macAB Pore compared to EKO-35-Pore
In short: as §1

EKO-35 araC::acrEF Pore = assay: as above; conditions: for Fold changes of MICs: EKO-35 araC::acrEF Pore compared to EKO-35-Pore; for Minimum inhibitory concentration, EKO-35 araC::acrEF Pore: Table 14A, porinated, technical duplicate
In short: as §1

EKO-35 araC::acrEF = assay: MIC susceptibility profiling, efflux platform; conditions: for Fold change of MICs: EKO-35 araC::acrEF compared to EKO-35; for Minimum Inhibitory Concentration, EKO-35 araC::acrEF: Table 13A, non-porinated, technical duplicate
In short: (§2)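 Strains are grown overnight in LB at 37 °C, adjusted to OD600 ~1.0 in PBS (pH 7.4) and diluted 1/2000 into MHB II. They are incubated with twofold compound dilutions for 18 h at 37 °C. MIC comes from background-subtracted OD600.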

EKO-35 araC::mdtBC = assay: MIC susceptibility profiling, efflux platform; conditions: for Fold change of MICs: EKO-35 araC::mdtBC compared to EKO-35
In short: as §2

EKO-35 araC::macAB = assay: MIC susceptibility profiling, efflux platform; conditions: for Fold change of MICs: EKO-35 araC::macAB compared to EKO-35
In short: as §2

EKO-35 araC::emrKY = assay: MIC susceptibility profiling, efflux platform; conditions: for Fold change of MICs: EKO-35 araC::emrKY compared to EKO-35
In short: as §2

[2] = tested on: EKO-35 araC::mexCD (MexCD from P. aeruginosa); assay: MIC susceptibility profiling, efflux platform; conditions: for Fold change of MICs: EKO-35 araC::mexCD compared to EKO-35
In short: as §2

EKO-35 araC::emrAB = assay: MIC susceptibility profiling, efflux platform; conditions: for Fold change of MICs: EKO-35 araC::emrAB compared to EKO-35
In short: as §2

EKO-35 araC::acrBD408A = assay: MIC susceptibility profiling, efflux platform; conditions: for Fold change of MICs: EKO-35 araC::acrBD408A compared to EKO-35
In short: as §2

EKO-35 araC::acrD = assay: MIC susceptibility profiling, efflux platform; conditions: for Fold change of MICs: EKO-35 araC::acrD compared to EKO-35; for Minimum Inhibitory Concentration, EKO-35 araC::acrD: Table 13A, non-porinated, technical duplicate
In short: as §2

[3] = EKO-35 araC::acrBD408A Pore, technical duplicate
[4] = EKO-35 araC::emrKY Pore, technical duplicate
[5] = EKO-35 araC::mdtBC Pore, technical duplicate
[6] = EKO-35 araC::mexCD Pore, technical duplicate
[7] = EKO-35 araC::emrAB Pore, technical duplicate
[8] = EKO-35 araC::macAB Pore, technical duplicate
[9] = Table 13B, non-porinated, technical duplicate

| Compound | Fold changes of MICs (EKO-35 araC::acrD Pore) | Minimum inhibitory concentration, EKO-35 araC::acrD Pore (EKO-35 araC::acrD Pore) | Fold changes of MICs [1] | Minimum inhibitory concentration [1, 3] | Fold changes of MICs (EKO-35 araC::acrB Pore) | Fold changes of MICs (EKO-35 araC::emrKY Pore) | Fold changes of MICs (EKO-35 araC::mdtEF Pore) | Fold changes of MICs (EKO-35 araC::mdtBC Pore) | Fold changes of MICs (EKO-35 araC::mexCD Pore) | Fold changes of MICs (EKO-35 araC::emrAB Pore) | Fold changes of MICs (EKO-35 araC::macAB Pore) | Fold changes of MICs (EKO-35 araC::acrEF Pore) | Fold change of MICs (EKO-35 araC::acrEF) | Fold change of MICs (EKO-35 araC::mdtBC) | Fold change of MICs (EKO-35 araC::macAB) | Fold change of MICs (EKO-35 araC::emrKY) | Fold change of MICs [2] | Fold change of MICs (EKO-35 araC::emrAB) | Fold change of MICs (EKO-35 araC::acrBD408A) | Fold change of MICs (EKO-35 araC::acrD) | further results |
| --- | --- | --- | --- | --- | --- | --- | --- | --- | --- | --- | --- | --- | --- | --- | --- | --- | --- | --- | --- | --- | --- |
| N#CC(=NNc1ccc(F)c(Cl)c1)C(=O)c1ccc(Cl)cc1 [compound 15] | 1 fold | 320 µg/mL | 1 fold | 320 µg/mL | 1 fold | 1 fold | 1 fold | 1 fold | 1 fold | 1 fold | 1 fold | 1 fold | 1 fold | 1 fold | 1 fold | 1 fold | 1 fold | 1 fold | 1 fold | 1 fold | Minimum inhibitory concentration, EKO-35 araC::acrB Pore (EKO-35 araC::acrB Pore): 320 µg/mL; Minimum inhibitory concentration (EKO-35 araC::emrKY Pore; [4]): 320 µg/mL; Minimum inhibitory concentration, EKO-35 araC::mdtEF Pore (EKO-35 araC::mdtEF Pore): 320 µg/mL; Minimum inhibitory concentration (EKO-35 araC::mdtBC Pore; [5]): 320 µg/mL; Minimum inhibitory concentration (EKO-35 araC::mexCD Pore; [6]): 320 µg/mL; Minimum inhibitory concentration (EKO-35 araC::emrAB Pore; [7]): 320 µg/mL; Minimum inhibitory concentration (EKO-35 araC::macAB Pore; [8]): 320 µg/mL; Minimum inhibitory concentration, EKO-35 araC::acrEF Pore (EKO-35 araC::acrEF Pore): 320 µg/mL; Minimum Inhibitory Concentration, EKO-35 araC::acrEF (EKO-35 araC::acrEF): 320 µg/mL; Minimum Inhibitory Concentration, EKO-35 araC::mdtBC (EKO-35 araC::mdtBC; [9]): 320 µg/mL; Minimum Inhibitory Concentration, EKO-35 araC::macAB (EKO-35 araC::macAB; [9]): 320 µg/mL; Minimum Inhibitory Concentration, EKO-35 araC::emrKY (EKO-35 araC::emrKY; [9]): 320 µg/mL; Minimum Inhibitory Concentration, EKO-35 araC::mexCD [2, 9]: 320 µg/mL; Minimum Inhibitory Concentration, EKO-35 araC::emrAB (EKO-35 araC::emrAB; [9]): 320 µg/mL; Minimum Inhibitory Concentration, EKO-35 araC::acrBD408A (EKO-35 araC::acrBD408A; [9]): 320 µg/mL; Minimum Inhibitory Concentration, EKO-35 araC::acrD (EKO-35 araC::acrD): 320 µg/mL |
| Nc1ccccc1SCc1nc(-c2ccc(Cl)cc2)no1 [compound 16] | 1 fold | 5 µg/mL | 1 fold | 5 µg/mL | 32 fold | 1 fold | 16 fold | 1 fold | 16 fold | 16 fold | 1 fold | 16 fold | 32 fold | 1 fold | 1 fold | 1 fold | 16 fold | 16 fold | 1 fold | 1 fold | Minimum inhibitory concentration, EKO-35 araC::acrB Pore (EKO-35 araC::acrB Pore): 160 µg/mL; Minimum inhibitory concentration (EKO-35 araC::emrKY Pore; [4]): 2.5 µg/mL; Minimum inhibitory concentration, EKO-35 araC::mdtEF Pore (EKO-35 araC::mdtEF Pore): 80 µg/mL; Minimum inhibitory concentration (EKO-35 araC::mdtBC Pore; [5]): 5 µg/mL; Minimum inhibitory concentration (EKO-35 araC::mexCD Pore; [6]): 80 µg/mL; Minimum inhibitory concentration (EKO-35 araC::emrAB Pore; [7]): 80 µg/mL; Minimum inhibitory concentration (EKO-35 araC::macAB Pore; [8]): 5 µg/mL; Minimum inhibitory concentration, EKO-35 araC::acrEF Pore (EKO-35 araC::acrEF Pore): 80 µg/mL; Minimum Inhibitory Concentration, EKO-35 araC::acrEF (EKO-35 araC::acrEF): 320 µg/mL; Minimum Inhibitory Concentration, EKO-35 araC::mdtBC (EKO-35 araC::mdtBC; [9]): 5 µg/mL; Minimum Inhibitory Concentration, EKO-35 araC::macAB (EKO-35 araC::macAB; [9]): 10 µg/mL; Minimum Inhibitory Concentration, EKO-35 araC::emrKY (EKO-35 araC::emrKY; [9]): 5 µg/mL; Minimum Inhibitory Concentration, EKO-35 araC::mexCD [2, 9]: 160 µg/mL; Minimum Inhibitory Concentration, EKO-35 araC::emrAB (EKO-35 araC::emrAB; [9]): 160 µg/mL; Minimum Inhibitory Concentration, EKO-35 araC::acrBD408A (EKO-35 araC::acrBD408A; [9]): 10 µg/mL; Minimum Inhibitory Concentration, EKO-35 araC::acrD (EKO-35 araC::acrD): 10 µg/mL |
| CCCCCCCCCCCCOS(=O)(=O)[O-].[Na+] [SDS, sodium dodecyl sulphate] | 32 fold |  | 1 fold |  | 32 fold | 1 fold | 32 fold | 1 fold | 4 fold | 4 fold | 1 fold | 32 fold | 32 fold | 2 fold | 1 fold | 2 fold | 32 fold | 4 fold | 2 fold | 32 fold | MIC ([1]; Escherichia coli, EKO-35 araC::acrBD408A Pore, technical duplicate, read-out: Minimum inhibitory concentration): 31.2 µg/mL; MIC (EKO-35 araC::emrKY Pore; Escherichia coli, EKO-35 araC::emrKY Pore, technical duplicate, read-out: Minimum inhibitory concentration): 31.2 µg/mL; MIC (EKO-35 araC::mdtBC Pore; Escherichia coli, EKO-35 araC::mdtBC Pore, technical duplicate, read-out: Minimum inhibitory concentration): 31.2 µg/mL; MIC (EKO-35 araC::mexCD Pore; Escherichia coli, EKO-35 araC::mexCD Pore, technical duplicate, read-out: Minimum inhibitory concentration): 125 µg/mL; MIC (EKO-35 araC::emrAB Pore; Escherichia coli, EKO-35 araC::emrAB Pore, technical duplicate, read-out: Minimum inhibitory concentration): 125 µg/mL; MIC (EKO-35 araC::macAB Pore; Escherichia coli, EKO-35 araC::macAB Pore, technical duplicate, read-out: Minimum inhibitory concentration): 31.2 µg/mL; MIC (EKO-35 araC::mdtBC; Escherichia coli, Table 13B, non-porinated, technical duplicate, read-out: Minimum Inhibitory Concentration, EKO-35 araC::mdtBC): 62.5 µg/mL; MIC (EKO-35 araC::macAB; Escherichia coli, Table 13B, non-porinated, technical duplicate, read-out: Minimum Inhibitory Concentration, EKO-35 araC::macAB): 31.2 µg/mL; MIC (EKO-35 araC::emrKY; Escherichia coli, Table 13B, non-porinated, technical duplicate, read-out: Minimum Inhibitory Concentration, EKO-35 araC::emrKY): 62.5 µg/mL; MIC ([2]; Table 13B, non-porinated, technical duplicate, read-out: Minimum Inhibitory Concentration, EKO-35 araC::mexCD): 1000 µg/mL; MIC (EKO-35 araC::emrAB; Escherichia coli, Table 13B, non-porinated, technical duplicate, read-out: Minimum Inhibitory Concentration, EKO-35 araC::emrAB): 125 µg/mL; MIC (EKO-35 araC::acrBD408A; Escherichia coli, Table 13B, non-porinated, technical duplicate, read-out: Minimum Inhibitory Concentration, EKO-35 araC::acrBD408A): 62.5 µg/mL; efflux pump-mediated resistance vs EKO-35 (EKO-35 araC::acrD; AcrD): confirmed |
